Experimental data reported in ChEMBL document CHEMBL2016493, “Design, synthesis, synergistic antimicrobial activity and cytotoxicity of 4-aryl substituted 3,4-dihydropyrimidinones of curcumin” (Bioorg Med Chem Lett, 2012).
Calls of active or inactive are those of the source. The rule behind the calls is not given here.

How the values were obtained:
[1] = test system: Trichoderma viride; test: Antifungal activity against Trichoderma viride MTCC 1107 at 80 uM/ml after 48 hrs by paper disc diffusion method; assay type: functional; settings: MTCC 1107, 48 h, read-out: IZ
[2] = test system: Escherichia coli; test: Antibacterial activity against Escherichia coli ATCC 35218 at 20 uM/ml after 24 hrs by kirby-bauer method; assay type: functional
[3] = test system: Salmonella typhimurium; test: Antibacterial activity against Salmonella typhimurium ATCC 23564 at 160 uM/ml after 24 hrs by kirby-bauer method; assay type: functional, Salmonella enterica subsp. enterica serovar Typhimurium; settings: Salmonella enterica, ATCC 23564, 24 h; read-out: IZ
[4] = test system: HCT-116
[5] = test system: Aspergillus flavus; test: Antifungal activity against Aspergillus flavus MTCC 1021 at 40 uM/ml after 48 hrs by paper disc diffusion method; assay type: functional
[6] = test system: Trichoderma viride; test: Antifungal activity against Trichoderma viride MTCC 1107 at 40 uM/ml after 48 hrs by paper disc diffusion method; assay type: functional; settings: MTCC 1107, 48 h, read-out: IZ
[7] = test system: Aspergillus niger; test: Antifungal activity against Aspergillus niger MTCC 1108 at 160 uM/ml after 48 hrs by paper disc diffusion method; assay type: functional; settings: MTCC 1108, 48 h, read-out: IZ
[8] = test system: Aspergillus flavus; test: Antifungal activity against Aspergillus flavus MTCC 1021 at 20 uM/ml after 48 hrs by paper disc diffusion method; assay type: functional
[9] = test system: Curvularia lunata; test: Antifungal activity against Curvularia lunata MTCC 581 at 20 uM/ml after 48 hrs by paper disc diffusion method; assay type: functional; settings: MTCC 581, 48 h, read-out: IZ
[10] = test system: Aspergillus niger; test: Antifungal activity against Aspergillus niger MTCC 1108 at 20 uM/ml after 48 hrs by paper disc diffusion method; assay type: functional
[11] = test system: Trichoderma viride; test: Antifungal activity against Trichoderma viride MTCC 1107 at 20 uM/ml after 48 hrs by paper disc diffusion method; assay type: functional; settings: MTCC 1107, 48 h, read-out: IZ
[12] = test system: Staphylococcus aureus; test: Antibacterial activity against Staphylococcus aureus ATCC 11632 at 40 uM/ml after 24 hrs by kirby-bauer method; assay type: functional
[13] = test system: Staphylococcus aureus; test: Antibacterial activity against Staphylococcus aureus ATCC 11632 at 160 uM/ml after 24 hrs by kirby-bauer method; assay type: functional; settings: ATCC 11632, 24 h, read-out: IZ
[14] = test system: Curvularia lunata; test: Antifungal activity against Curvularia lunata MTCC 581 at 40 uM/ml after 48 hrs by paper disc diffusion method; assay type: functional; settings: MTCC 581, 48 h, read-out: IZ
[15] = test system: Escherichia coli; test: Antibacterial activity against Escherichia coli ATCC 35218 at 160 uM/ml after 24 hrs by kirby-bauer method; assay type: functional
[16] = test system: Aspergillus niger; test: Antifungal activity against Aspergillus niger MTCC 1108 at 80 uM/ml after 48 hrs by paper disc diffusion method; assay type: functional; settings: MTCC 1108, 48 h, read-out: IZ
[17] = test system: HepG2
[18] = test system: Aspergillus flavus; test: Antifungal activity against Aspergillus flavus MTCC 1021 at 160 uM/ml after 48 hrs by paper disc diffusion method; assay type: functional; settings: MTCC 1021, 48 h, read-out: IZ
[19] = test system: Curvularia lunata; test: Antifungal activity against Curvularia lunata MTCC 581 at 160 uM/ml after 48 hrs by paper disc diffusion method; assay type: functional; settings: MTCC 581, 48 h, read-out: IZ
[20] = test system: Burkholderia pseudomallei; test: Antibacterial activity against Burkholderia pseudomallei NTCC 10274 at 20 uM/ml after 24 hrs by kirby-bauer method; assay type: functional
[21] = test system: Escherichia coli; test: Antibacterial activity against Escherichia coli ATCC 35218 at 40 uM/ml after 24 hrs by kirby-bauer method; assay type: functional; settings: ATCC 35218, 24 h, read-out: IZ
[22] = test system: Salmonella typhimurium; test: Antibacterial activity against Salmonella typhimurium ATCC 23564 at 40 uM/ml after 24 hrs by kirby-bauer method; assay type: functional, Salmonella enterica subsp. enterica serovar Typhimurium
[23] = test system: Pseudomonas aeruginosa; test: Antibacterial activity against Pseudomonas aeruginosa ATCC 15499 at 160 uM/ml after 24 hrs by kirby-bauer method; assay type: functional
[24] = test system: QG-56; test: Cytotoxicity against human QG56 cells after 48 hrs by MTT assay; assay type: functional, cell-based
[25] = test system: Staphylococcus aureus; test: Antibacterial activity against Staphylococcus aureus ATCC 11632 at 80 uM/ml after 24 hrs by kirby-bauer method; assay type: functional; settings: ATCC 11632, 24 h, read-out: IZ
[26] = test system: Salmonella typhimurium; test: Antibacterial activity against Salmonella typhimurium ATCC 23564 at 80 uM/ml after 24 hrs by kirby-bauer method; assay type: functional, Salmonella enterica subsp. enterica serovar Typhimurium
[27] = test system: Staphylococcus aureus; test: Antibacterial activity against Staphylococcus aureus ATCC 11632 at 20 uM/ml after 24 hrs by kirby-bauer method; assay type: functional
[28] = test system: Burkholderia pseudomallei; test: Antibacterial activity against Burkholderia pseudomallei NTCC 10274 at 160 uM/ml after 24 hrs by kirby-bauer method; assay type: functional; settings: NTCC 10274, 24 h, read-out: IZ
[29] = test system: Aspergillus niger; test: Antifungal activity against Aspergillus niger MTCC 1108 at 40 uM/ml after 48 hrs by paper disc diffusion method; assay type: functional
[30] = test system: Trichoderma viride; test: Antifungal activity against Trichoderma viride MTCC 1107 at 160 uM/ml after 48 hrs by paper disc diffusion method; assay type: functional; settings: MTCC 1107, 48 h, read-out: IZ
[31] = test system: Aspergillus flavus; test: Antifungal activity against Aspergillus flavus MTCC 1021 at 80 uM/ml after 48 hrs by paper disc diffusion method; assay type: functional
[32] = test system: Burkholderia pseudomallei; test: Antibacterial activity against Burkholderia pseudomallei NTCC 10274 at 80 uM/ml after 24 hrs by kirby-bauer method; assay type: functional; settings: NTCC 10274, 24 h, read-out: IZ
[33] = test system: Salmonella typhimurium; test: Antibacterial activity against Salmonella typhimurium ATCC 23564 at 20 uM/ml after 24 hrs by kirby-bauer method; assay type: functional, Salmonella enterica subsp. enterica serovar Typhimurium
[34] = test system: Escherichia coli; test: Antibacterial activity against Escherichia coli ATCC 35218 at 80 uM/ml after 24 hrs by kirby-bauer method; assay type: functional; settings: ATCC 35218, 24 h, read-out: IZ
[35] = test system: Curvularia lunata; test: Antifungal activity against Curvularia lunata MTCC 581 at 80 uM/ml after 48 hrs by paper disc diffusion method; assay type: functional; settings: MTCC 581, 48 h, read-out: IZ
[36] = test system: Burkholderia pseudomallei; test: Antibacterial activity against Burkholderia pseudomallei NTCC 10274 at 40 uM/ml after 24 hrs by kirby-bauer method; assay type: functional
[37] = test system: Pseudomonas aeruginosa; test: Antibacterial activity against Pseudomonas aeruginosa ATCC 15499 at 20 uM/ml after 24 hrs by kirby-bauer method; assay type: functional
[38] = test system: Pseudomonas aeruginosa; test: Antibacterial activity against Pseudomonas aeruginosa ATCC 15499 at 40 uM/ml after 24 hrs by kirby-bauer method; assay type: functional
[39] = test system: Pseudomonas aeruginosa; test: Antibacterial activity against Pseudomonas aeruginosa ATCC 15499 at 80 uM/ml after 24 hrs by kirby-bauer method; assay type: functional; settings: ATCC 15499, 24 h, read-out: IZ
[40] = Salmonella enterica, ATCC 23564, 24 h, read-out: IZ
[41] = Salmonella enterica subsp. enterica serovar Typhimurium

Row | SMILES | zone of inhibition at 80 µM [1] [mm] | zone of inhibition at 160 µM [3] [mm] | IC50 [4] [uM/ml] | inhibition zone (IZ) [5] | zone of inhibition [6] [mm] | zone of inhibition at 160 µM [7] [mm] | inhibition zone (IZ) [8] | zone of inhibition at 20 µM [9] [mm] | inhibition zone (IZ) [10] | zone of inhibition at 20 µM [11] [mm] | zone of inhibition at 160 µM [13] [mm] | zone of inhibition at 40 µM [14] [mm] | zone of inhibition at 80 µM [16] [mm] | IC50 [17] [uM/ml] | zone of inhibition at 160 µM [18] [mm] | zone of inhibition at 160 µM [19] [mm] | inhibition zone (IZ) [20] | IC50 [24] [uM/ml] | zone of inhibition at 80 µM [25] [mm] | zone of inhibition at 160 µM [28] [mm] | also measured
1 | COc1cc(/C=C/C(=O)C2=C(/C=C/c3ccc(O)c(OC)c3)NC(=S)NC2c2ccc(Cl)cc2)ccc1O (configuration not stated) | 22 | 22 | 50 | inactive | 19 | 11 | inactive | 9 | inactive | 18 | 16 | 12 | 9 | 100 | 9 | 15 | inactive | 100 | 13 | 16 | inhibition zone (IZ) [2]: inactive; zone of inhibition at 40 µM ([12]; ATCC 11632, 24 h, read-out: IZ): 11 mm; zone of inhibition at 160 µM ([15]; ATCC 35218, 24 h, read-out: IZ): 19 mm; zone of inhibition at 40 µM [21]: 9 mm; zone of inhibition at 40 µM [22, 40]: 17 mm; inhibition zone (IZ) [23]: inactive; zone of inhibition at 80 µM [26, 40]: 19 mm; zone of inhibition at 20 µM ([27]; ATCC 11632, 24 h, read-out: IZ): 9 mm; inhibition zone (IZ) [29]: inactive; zone of inhibition at 160 µM [30]: 24 mm; inhibition zone (IZ) [31]: inactive; zone of inhibition at 80 µM [32]: 12 mm; zone of inhibition at 20 µM [33, 40]: 13 mm; zone of inhibition at 80 µM [34]: 15 mm; zone of inhibition at 80 µM [35]: 13 mm; zone of inhibition at 40 µM ([36]; NTCC 10274, 24 h, read-out: IZ): 9 mm
2 | COc1cc(/C=C/C(=O)C2=C(/C=C/c3ccc(O)c(OC)c3)NC(=S)NC2c2ccc([N+](=O)[O-])cc2)ccc1O (configuration not stated) | 21 | 10 | 100 | inactive | 18 | 13 | inactive | 14 | inactive | 17 | 12 | 17 | 11 | 50 | 11 | 21 | inactive | 50 | 10 | 11 | inhibition zone (IZ) [37]: inactive; inhibition zone (IZ) [12]: inactive; inhibition zone (IZ) [15]: inactive; inhibition zone (IZ) [38]: inactive; inhibition zone (IZ) [22, 41]: inactive; zone of inhibition at 160 µM ([23]; ATCC 15499, 24 h, read-out: IZ): 10 mm; zone of inhibition at 80 µM [39]: 9 mm; inhibition zone (IZ) [26, 41]: inactive; inhibition zone (IZ) [27]: inactive; zone of inhibition at 40 µM ([29]; MTCC 1108, 48 h, read-out: IZ): 9 mm; zone of inhibition at 160 µM [30]: 22 mm; inhibition zone (IZ) [31]: inactive; zone of inhibition at 80 µM [32]: 9 mm; inhibition zone (IZ) [33, 41]: inactive; zone of inhibition at 80 µM [35]: 19 mm; inhibition zone (IZ) [36]: inactive
